Test results: PubChem BioAssay (NCI)
“And” between values parts separate entries of the source, which are not always exact repeats. Equal values may be shown once.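 Following 48 hours of exposure in 96-well plates, responses at five concentrations were used to interpolate endpoints linearly. Abbreviation: GI50, concentration required for 50% inhibition of growth. The concentration for full growth arrest is given as TGI.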

Test system: MDA-MB-435
Assay: NCI anticancer screen, dose series, 48 h

SMILES | GI50 | TGI
COc1cc(Nc2ncccc2C(=O)NCc2cn(Cc3cccc(Oc4ccccc4)c3)nn2)cc(OC)c1 | 2.23 µM | 5.43 µM
Cc1cc(Nc2ccc(NC(=O)c3ccc(Nc4ccnc5ccccc45)cc3)cc2)nc(N)n1 | 2.93 µM | > 100 µM
COc1ccc(/C=C\[N+](=O)[O-])cc1OC | 2.46 µM | 9.38 µM
Cc1ccc(S(=O)(=O)Nc2ccccc2C=O)cc1 | – | 34.9 µM
C(=NCCN1CCOCC1)=NC1CCCCC1 | – | > 100 µM
CC[As](CC)SC[C@H](C)C(=O)N1CCC[C@H]1C(=O)O | 0.0305 µM | 0.114 µM
NC(N)=N/N=C/c1c(-c2ccsc2)nc2sccn12 | 14.6 µM | 27.7 µM
Oc1ccc(Nc2ncnc3c2sc2ncccc23)cc1 | 0.0403 µM | > 100 µM
CC(=O)OC1COC(Oc2c(C)c3c4c(c2O)[C@@H](C)CC[C@@H]4[C@@H](C)C[C@H]3C=C(C)C)C(O)C1OC(C)=O (stereo partly drawn) | 10.8 µM | 23.8 µM
S=C(Nc1ccc(Cl)cc1)Nc1ccc(-c2nc3ccccc3s2)cc1 | 13.4 µM | 29.8 µM
CO/N=C(/C)c1cccc(Nc2cc(-n3nnc4ccccc43)nc3ccccc23)c1 | 14.8 µM | 39.4 µM
COc1cc(C(=O)N2CCN(C=O)C2=S)cc(OC)c1OC | 15.5 µM | 30.8 µM
NC(=S)N/N=C/C(=O)O | > 100 µM | > 100 µM
CC/C=C\C[C@H](O)C/C=C1/C(=O)C(Cl)=C[C@@H]1C/C=C\CCCC(=O)OC | 0.404 µM | 1.22 µM

Test system: MOLT-4 leukemia
Assay: NCI anticancer screen, dose series, 48 h

SMILES | GI50 | TGI
Clc1ccc2c(c1)[nH]c1c2nc2ccccn21 | 28.4 µM and 5.44 µM | 76.8 µM and 42.7 µM
CCOC(=O)c1cnc2c(ccc3[nH]n(C)nc32)c1=O | – | > 100 µM
NC(=S)N/N=C(\CC1OC(=O)c2ccccc21)c1ccc(Cl)cc1 (stereo not drawn) | – | > 100 µM
COc1ccc2occ(CCC(=O)O)c2c1 | – | > 100 µM
COC(=O)C(C(=O)c1ccccc1)C(C(=O)C(=O)Nc1ccc(OC)cc1OC)C(=O)C(=O)c1ccc(C)cc1 (stereo not drawn) | – | > 100 µM
CC1(C)COC(C2(C)C(=O)C=C(c3ccccc3)c3ccccc32)=N1 (stereo not drawn) | – | > 100 µM
O=C1CCC2(c3ccc(Cl)cc3)Nc3ncccc3N12 (stereo not drawn) | – | > 100 µM
CC12C/C(=C\c3ccccc3)C(=O)C3C1CCCC32 | – | 53.1 µM
OC(CC1SCCCS1)c1ccccc1 (stereo not drawn) | – | > 100 µM
CCCCOC(=O)CNC(=O)OC/C=C/C#CC#C/C=C/COC(=O)NCC(=O)OCCCC | > 100 µM | > 100 µM
O=C1c2ccccc2C(=O)N1CCn1ccc(NC(c2ccccc2)(c2ccccc2)c2ccccc2)nc1=O | – | 43 µM
CC(C)(C)NNC(=O)CCn1[nH]c(=O)c(Cl)c(Cl)c1=O | – | > 100 µM
O=CCC1CCCCC1 | – | > 100 µM
CCC12CCCN(Cc3ccccc3)C1c1c(n(C)c3ccccc13)CC2 (stereo not drawn) | – | > 253 µM
COc1cc(Nc2ncccc2C(=O)NCc2cn(Cc3cccc(Oc4ccccc4)c3)nn2)cc(OC)c1 | 4.86 µM | > 100 µM
Nc1ccc([N+](=O)[O-])cc1N=C/C=C/c1ccccc1 | 3.89 µM | > 100 µM
CCN(CC)CCCN1CCc2c([nH]c3ccccc23)C1c1cccnc1 (stereo not drawn) | – | > 100 µM
COC(=O)C1c2cc3c(cc2C(OC2OC(C)C(OC)C(C)(OC)C2OC)CC1(C)O)C(=O)c1c(O)cc2c(c1C3=O)OC1OC2(C)C(O)C([N+](C)(C)[O-])C1O (stereo not drawn) | – | 4.97 µM
CC(C)N(C(=O)C12C3C4C1C1C4(C#N)C3C12C#N)C(C)C (stereo not drawn) | – | > 100 µM
O=C1CCC(Cl)=CC2CCCN12 (stereo not drawn) | – | > 100 µM

SMILES | GI50 | TGI
COc1ccc(/C=C\[N+](=O)[O-])cc1OC | 4.1 µM | 38 µM
c1ccc2cc(-c3cc4ccccc4s3)ccc2c1 | – | > 100 µM
Cc1ccc(S(=O)(=O)Nc2ccccc2C=O)cc1 | – | 34.5 µM
Cc1ccc(S(=O)(=O)N(C=O)N=C2CCN(Cc3ccccc3)CC2)cc1 | – | > 100 µM
CC(C)C(CCl)NC(=O)c1cccc(C(=O)N[C@H](CCl)C(C)C)n1 (stereo in doubt) | – | > 100 µM
CCC(=O)CC(=O)CCC(=O)Nc1cc(C)ccc1C | – | > 100 µM
C(=NCCN1CCOCC1)=NC1CCCCC1 | – | > 100 µM
CC[As](CC)SC[C@H](C)C(=O)N1CCC[C@H]1C(=O)O | 0.016 µM | 0.0586 µM
NC(N)=N/N=C/c1c(-c2ccsc2)nc2sccn12 | 10.8 µM | 39 µM
Oc1ccc(Nc2ncnc3c2sc2ncccc23)cc1 | 0.0527 µM | > 45.5 µM
CC(=O)OC1COC(Oc2c(C)c3c4c(c2O)[C@@H](C)CC[C@@H]4[C@@H](C)C[C@H]3C=C(C)C)C(O)C1OC(C)=O (stereo partly drawn) | 6.64 µM | 25.6 µM
S=C(Nc1ccc(Cl)cc1)Nc1ccc(-c2nc3ccccc3s2)cc1 | – | > 100 µM
O=c1/c(=C/c2ccccc2[N+](=O)[O-])sc2nnc(-c3ccco3)n12 | – | 62 µM
CC(=O)CCn1ncc(Cl)c(Cl)c1=O | – | > 100 µM
CO/N=C(/C)c1cccc(Nc2cc(-n3nnc4ccccc43)nc3ccccc23)c1 | 7.18 µM | > 100 µM
COc1cc(C(=O)N2CCN(C=O)C2=S)cc(OC)c1OC | 29.4 µM | 73.8 µM
NC(=S)N/N=C/C(=O)O | 72.5 µM | > 100 µM
Cc1cn2c(=O)c3ncn(C4OC(CO)C(O)C4O)c3n(C)c2n1 (stereo not drawn) | – | > 100 µM
CC/C=C\C[C@H](O)C/C=C1/C(=O)C(Cl)=C[C@@H]1C/C=C\CCCC(=O)OC | 0.472 µM | 1.95 µM

Test system: SK-MEL-28 melanoma
Assay: NCI anticancer screen, dose series, 48 h

SMILES | TGI | GI50
Clc1ccc2c(c1)[nH]c1c2nc2ccccn21 | 62.4 µM and 31.3 µM | –
CCOC(=O)c1cnc2c(ccc3[nH]n(C)nc32)c1=O | > 100 µM | –
NC(=S)N/N=C(\CC1OC(=O)c2ccccc21)c1ccc(Cl)cc1 (stereo not drawn) | > 100 µM | –
COc1ccc2occ(CCC(=O)O)c2c1 | > 100 µM | –
COC(=O)C(C(=O)c1ccccc1)C(C(=O)C(=O)Nc1ccc(OC)cc1OC)C(=O)C(=O)c1ccc(C)cc1 (stereo not drawn) | > 100 µM | –
CC1(C)COC(C2(C)C(=O)C=C(c3ccccc3)c3ccccc32)=N1 (stereo not drawn) | > 100 µM | –
O=C(Nc1ccn(CCO)c(=O)n1)c1ccccc1 | > 100 µM | –
O=C1CCC2(c3ccc(Cl)cc3)Nc3ncccc3N12 (stereo not drawn) | > 100 µM | –
C#CCOc1cccc(-c2ncc3cc(NC(=O)CCl)ccc3n2)c1 | 3.66 µM | 1.98 µM
CC12C/C(=C\c3ccccc3)C(=O)C3C1CCCC32 | > 100 µM | –
CCCCOC(=O)CNC(=O)OC/C=C/C#CC#C/C=C/COC(=O)NCC(=O)OCCCC | > 100 µM | > 100 µM
O=C1c2ccccc2C(=O)N1CCn1ccc(NC(c2ccccc2)(c2ccccc2)c2ccccc2)nc1=O | 32.1 µM | –
CC(C)(C)NNC(=O)CCn1[nH]c(=O)c(Cl)c(Cl)c1=O | > 100 µM | –
O=CCC1CCCCC1 | > 100 µM | –
CCC12CCCN(Cc3ccccc3)C1c1c(n(C)c3ccccc13)CC2 (stereo not drawn) | > 253 µM | –
COc1cc(Nc2ncccc2C(=O)NCc2cn(Cc3cccc(Oc4ccccc4)c3)nn2)cc(OC)c1 | > 100 µM | 4.14 µM
Nc1ccc([N+](=O)[O-])cc1N=C/C=C/c1ccccc1 | > 100 µM | 29.7 µM
CCN(CC)CCCN1CCc2c([nH]c3ccccc23)C1c1cccnc1 (stereo not drawn) | > 100 µM | –
Nc1nc(Cl)cc(NCCCCCCCCNc2cc(Cl)nc(N)n2)n1 | > 100 µM | –
CC(C)N(C(=O)C12C3C4C1C1C4(C#N)C3C12C#N)C(C)C (stereo not drawn) | > 100 µM | –
O=C1CCC(Cl)=CC2CCCN12 (stereo not drawn) | > 100 µM | –
COc1ccc(/C=C\[N+](=O)[O-])cc1OC | 13 µM | 3.53 µM
c1ccc2cc(-c3cc4ccccc4s3)ccc2c1 | > 100 µM | –
Cc1ccc(S(=O)(=O)Nc2ccccc2C=O)cc1 | 64.7 µM | –
CC(C)C(CCl)NC(=O)c1cccc(C(=O)N[C@H](CCl)C(C)C)n1 (stereo in doubt) | > 100 µM | –
